Data on nine compounds can be found in US6686496B1, “Treatment of myeloma” (University of Central Florida, priority 2001, dated 2004).

Data set [1] is described as follows: Animal toxicity bioassay: acute toxicity, intraperitoneal injection, LD50 by Litchfield and Wilkinson. It counts as in vivo. The note with it: both sexes, mouse, in vivo, ip, white mice, observed 14 days. The method, then: (§1) Acute toxicity was studied on white mice of both sexes with weight ranging between 18-26 grams under intraperitoneal injection of 2% solution of tested compound in starch (the compound was dissolved in starch slime and injected) on the basis of 0.1 ml of solution per 10 g of the animal weight. Each dose was tested on the group of 6 animals that were observed during 14 days period.

A short description of data set [2]: Solubility in solvents and water.
For data set [3], the system named is human myeloma cells (ATCC CCL155). The data set is described as follows: Cytotoxicity assay: growth inhibition of CCL155 cells, MTS/PMS readout. It counts as cell-based. The note with it: Table 1, approximately 48 hours with test compound, concentration not given. As for the experimental part:
The anticancer activity against human myeloma of the novel compounds (as earlier reported) was realized by the following procedure which determines the inhibitory effect of test samples on the growth of human myeloma cells.
[…]
(ATCC CCL155) The CCL155 cells are grown in RPMI 1640 media+20% Fetal bovine serum+4.5 g/L glucose+10 mM HEPES+1.0 mM sodium pyruvate+1% Antibiotic/Antimycotic for approximately 48 hours at 37° C./5% CO2 in the presence of the test compound.
Growth/Non-Growth of the cells (e.g., cell density) is determined using Promega's MTS/PMS assay system. MTS (3-(4,5-dimethylthiazol-2-yl)-5-(3-carboxymethoxyphenyl)-2-(4-sulfophenyl)-2H-tetrazolium, inner salt) is an aqueous compound that is reduced to soluble formazan by the presence of NADH formed by dehydrogenases present within the CCL155 cells. The absorbance of the formazan can be measured at 490 nm and is directly proportional to the number of living cells present in the culture. PMS (Phenazine Methosulfate) is added an electron coupling reagent and greatly increases the rate of reduction.
To facilitate a full understanding of the procedure the following definitions are offered:
Test wells—wells containing test sample and Diluted CCL155 cells
Test values—absorbance of test wells
Blank wells—wells containing test sample and CCL155 media (C155-01S); used to obtain background absorbance due to test sample
Blank values—absorbance of blank wells
Negative Control—maximal cell growth; results of test samples will be expressed as a percent of the Negative Control
Positive Control—known inhibitor of CCL155 cells; used to validate assay system
Matrix—solvent that the samples are prepared/diluted in […]
Blank values will be determined for each sample to account for any color contribution due to the sample itself. […] After completion of MTS/PMS reaction blank values will be subtracted from the test value to obtain a net absorbance that will be used to calculate cell density. […]
In order to establish the accuracy of this assay a Positive Control consisting of 50 μM Methotrexate […] of the Negative Control (CCL155 cells are somewhat resistant to methotrexate) is utilized.
In order to establish the accuracy of this assay a Positive Control consisting of 50 μM Methotrexate should show less than 75% of the net absorbance of the Negative Control is utilized.

Data set [4] has as its system white mice. As to the kind of experiment: Animal toxicity bioassay: acute toxicity, intraperitoneal injection, LD50 by Litchfield and Wilkinson. It counts as in vivo. The note with it: Table 1, observed 14 days. The method, then:
as §1

The test system of data set [5] is mice. The note with it: cited from earlier work.
Data set [6] is described as follows: Stability in solutions. The class given is physicochemical. The following applies: solution heated or stored for a long time; forms OF-12.

The term LD50 denotes the dose at which mortality reaches 50%. Lower therefore signals greater toxicity.

With `COC(=O)/C(=C/C(=O)c1ccccc1)NN=C1c2ccccc2-c2ccccc21` [1F-04, 2-(N′-Fluoren-9-ylidene-hydrazino)-4-oxo-4-phenyl-but-2-enoic acid methyl ester], the median lethal dose (LD50) at 14 days in data set [1] was greater than 1000 mg/kg. Moreover, in data set [2], the “Solubility in DMSO, DMFA, dichloroethane, acetonitrile” value (“Solubility in DMSO, DMFA” for short) is listed as “highly soluble” and the Solubility in water result is on record as “insoluble”. Further, the “Activity (ATCC CCL155)” value in data set [3] stood at 93%.

Consider `CCOc1ccc(/C(Cl)=C/C(=N\N=C2c3ccccc3-c3ccccc32)C(=O)OC)cc1` [3F-19, 4-Chloro-4-(4-ethoxy-phenyl)-2-(fluoren-9-ylidene-hydrazono)-but-3-enoic acid methyl ester], for which, in data set [4], the LD50 is recorded as greater than 200 mg/kg. For the same compound, in data set [3], the “Activity (ATCC CCL155)” value is 100%.

In the case of `N[C@@H](Cc1ccc(N(CCCl)CCCl)cc1)C(=O)O` [Melphalan], the “Toxicity: LD50 in mice” value in data set [5] was 23 mg/kg.

As for `COC(=O)C(=CC(=O)C(C)(C)C)NN=C1c2ccccc2-c2ccccc21` [OF-06, 2-(N′-Fluoren-9-ylidene-hydrazino)-5,5-dimethyl-4-oxo-hex-2-enoic acid methyl ester], the LD50 in data set [4] is reported as greater than 3000 mg/kg. In addition, the LD50 at 14 days in data set [1] was greater than 3000 mg/kg. Besides, the “Solubility in DMSO, DMFA” value in data set [2] is “highly soluble”. Also, the “Solubility in ethanol, tetrachloromethane” value in data set [2] (ethanol, tetrachloromethane) is recorded as “slightly soluble”. Also, in data set [2] (hexane), the Solubility in hexane entry is “insoluble”. Further, the “Activity (ATCC CCL155)” value in data set [3] is recorded as 82%.

The compound `COC(=O)C(=CC(=O)c1ccc(Cl)cc1)NN=C1c2ccccc2-c2ccccc21` [OF-07, 4-(4-Chloro-phenyl)-2-(N′-fluoren-9-ylidene-hydrazino)-4-oxo-but-2-enoic acid methyl ester] displayed an LD50 at 14 days in data set [1] greater than 750 mg/kg. In data set [2], the “Solubility in DMSO, DMFA” value was “highly soluble” and the Solubility in water entry is on record as “insoluble”.

Turning to `COC(=O)/C(=C/C(=O)c1ccccc1)N/N=C(\c1ccccc1)c1ccccc1Br` [OF-09, 2-{N′-[(2-Bromo-phenyl)-phenyl-methylene]-hydrazino}-4-oxo-4-phenyl-but-2-enoic acid methyl ester], the median lethal dose (LD50) at 14 days in data set [1] was greater than 5000 mg/kg. Besides, in data set [2], the “Solubility in DMSO, DMFA” value was “highly soluble” and the Solubility in water entry is recorded as “insoluble”.

For `COC(=O)/C(=C/C(=O)c1ccccc1)N/N=C(\c1ccccc1)c1ccc(N(C)C)cc1` [OF-10, 2-{N′-[(4-Dimethylamino-phenyl)-phenyl-methylene]-hydrazino}-4-oxo-4-phenyl-but-2-enoic acid methyl ester], the LD50 at 14 days in data set [1] was greater than 1500 mg/kg. In addition, in data set [2], the “Solubility in DMSO, DMFA” value is recorded as “highly soluble”; the Solubility in chloroform result is on record as “highly soluble”; the Solubility in water entry is “insoluble”.

As to `CCOc1ccc(C(=O)CC(O)(NN=C2c3ccccc3-c3ccccc32)C(=O)OC)cc1` (stereo not drawn) [OF-13, 4-(4-Ethoxy-phenyl)-2-(N′-fluoren-9-ylidene-hydrazino)-2-hydroxy-4-oxo-butyric acid methyl ester], the Stability in solutions entry in data set [6] is “not stable in solutions and decomposes quickly when the solution is heated or stored for a long time”. The compound also had a 50% lethal dose (LD50) at 14 days in data set [1] greater than 1500 mg/kg. The “Activity (ATCC CCL155)” value in data set [3] is given as 99%.

`COC(=O)/C(=C/C(=O)c1ccccc1)N/N=C(\C)c1ccc(Cl)cc1` [OF-20, 2-{N′-[1-(4-Chloro-phenyl)-ethylidene]-hydrazino}-4-oxo-4-phenyl-but-2-enoic acid methyl ester]: the 50% lethal dose (LD50) at 14 days in data set [1] is greater than 250 mg/kg. Besides, in data set [2], the “Solubility in DMSO, DMFA” value is “highly soluble”; the Solubility in chloroform entry is “highly soluble”; the Solubility in water result is “insoluble”.
